Data reported in US12421216B2, “Voruciclib polymorphs and methods of making and using thereof” (MEI PHARMA, INC., priority 2019, dated 2025).
“Also recorded” adds a separate entry of the source.

Key:
Type in all cases: physicochemical
[1] = Physical stability of solid forms upon drying under vacuum, HT-XRPD
Protocol: (§1) Amorphous voruciclib oxalate salt, generated by freeze-drying, was used to start the thermocycling experiments. Suspensions were prepared in the selected solvent systems at RT. Subsequently, the mixtures were subjected to a temperature profile. After the temperature profile, the solids were separated from the solutions by centrifugation and were dried at ambient conditions and under deep vacuum before being harvested and analyzed by HT-XRPD. The liquid phases were also dried under deep vacuum before being harvested and analyzed by HT-XRPD. All solids were exposed to AAC (40° C./75% RH, 2 days).
(§2) After the temperature profile, the solids were separated from the liquids by centrifugation and the solid phase was dried at ambient conditions and under deep vacuum (5 mbar) before being harvested and analyzed by HT-XRPD. The liquid phases were dried under deep vacuum (5 mbar) and the recovered solids were analyzed by HT-XRPD. All solids were then exposed to accelerated aging conditions (40° C./75% RH, 2 days) followed by HT-XRPD re-analysis.
as §1, with “voruciclib phosphate” for “voruciclib oxalate”, “profile. Upon completion of” for “profile. After”, “dried under” for “dried at”
as §2, with “dried under” for “dried at”, “(5 mbar, 18 h)” for “(5 mbar)”
Amorphous voruciclib malonate salt, generated by freeze-drying, was used to start the thermocycling experiments. Suspensions were prepared in the selected solvent systems at RT and were subjected to three thermocycles between 50 and 5° C., followed by aging at 25° C. for 3 days. Upon completion of the aging time, the solids were separated from the liquids by centrifugation and they were dried at ambient conditions and under deep vacuum (5 mbar) before being harvested and analyzed by HT-XRPD.
After the temperature profile the solids were separated from the solution by centrifugation and they were dried at ambient conditions and under deep vacuum before being harvested and analyzed by HT-XRPD.

[2] = Qualitative solubility determination in water at room temperature, with observation of gel formation
Protocol: The aqueous solubility of Oxa2 (starting material) was assessed by the qualitative solubility determination approach. To 5.4 mg of Oxa2, water was added in steps of 50 μl until the material was dissolved (Exp. ID: SAS1). Visual inspection by the naked eye was used to decide whether complete dissolution occurred.
After the addition of 7.5 ml water, Oxa2 was not dissolved in water at room temperature. The suspension was heated to 50° C. upon which complete dissolution occurred, as indicated by a clear solution.
The aqueous solubility of Pho1 (Exp. ID: TCP23) was assessed by the qualitative solubility determination approach. To 5.6 mg of Pho1, water was added in steps of 50 μl until the material was dissolved (Exp. ID: SAS2). Visual inspection by the naked eye was used to decide whether complete dissolution occurred. After the addition of 700 μl water, Pho1 was not dissolved in water at room temperature whereas after a subsequent addition of 200 μl water (900 μl in total), the material completely dissolved.
The solubility of Mao1 in water was determined by adding small aliquots of water to the material until it was dissolved.

[3] = Dynamic Vapor Sorption (DVS) hygroscopicity
Protocol: (§3) Differences in hygroscopicity (moisture uptake) of the various forms of a solid material provided a measure of their relative stability at increasing relative humidity. Moisture sorption isotherms of small samples were obtained using a DVS-1 system from Surface Measurement Systems (London, UK); this instrument is suitable for use with a few milligrams of sample, with an accuracy of 0.1 μg. The relative humidity was varied during sorption-desorption-sorption (45-95-0-45% RH) at a constant temperature of 25° C. Weight equilibration per step was set at dm/dt <0.0002 for a minimum of 1 hour or maximum of 6 hours. Afterwards the sample was measured by HT-XRPD.
The hygroscopicity was classified according to the European Pharmacopoeia Hygroscopicity classification.
as §3, with “(40-95-0-40%” for “(45-95-0-45%”
as §3, with “use with as little as a few” for “use with a few”
The hygroscopicity of Mao1 was determined by DVS. The powder was exposed to a RH profile consisting of sorption/desorption/sorption cycles (40-95-0-40% RH) performed at 25° C. The water vapor uptake gained during the sorption half-cycle was 0.75%.

[4] = Physical stability upon exposure to accelerated aging conditions (AAC, 40° C./75% RH), re-analysis by HT-XRPD

**Q.** Which “Solid forms Vacuum” value ([1]; oxalate salt thermocycling solids, form after drying under deep vacuum (5 mbar, 18 h), HT-XRPD, label = ambient-dried form) does the source give for `CN1CC[C@@H](c2c(O)cc(O)c3c(=O)cc(-c4ccc(C(F)(F)F)cc4Cl)oc23)[C@@H]1CO.O=C(O)C(=O)O` [Oxa2] here?
**A.** Oxa2

**Q.** And the “Physical stability upon drying under deep/high vacuum” value ([1]; oxalate, phosphate, malonate forms, 5 mbar, 18 h)?
**A.** stable under vacuum conditions; also recorded: physically stable

**Q.** And the “Solubility classification in water” value ([2]; USP classification, room temperature)?
**A.** practically insoluble (solubility <0.1 mg/mL)

**Q.** And the “Solubility in water at room temperature” value ([2]; qualitative determination by adding aliquots of water, visual)?
**A.** < 100 µg/mL

**Q.** And the “Behaviour upon addition of water (gel formation)” value ([2]; small amount of water added to solid)?
**A.** No indication of gel-formation was observed

**Q.** What about the Water uptake ([3]; DVS, 25° C./80% RH) of the same molecule?
**A.** approximately 2.4%

**Q.** And the Hygroscopicity classification ([3]; European Pharmacopoeia classification, water uptake at 25° C./80% RH)?
**A.** moderately hygroscopic

**Q.** And the “Solid form recovered after DVS analysis” value ([3]; XRPD after sorption-desorption-sorption cycle)?
**A.** Oxa2 was recovered

**Q.** What about the “Physical stability upon exposure to AAC” value ([4]; 40° C./75% RH, 2 days, HT-XRPD before and after) of the same molecule?
**A.** stable when exposed to advanced aging conditions; also recorded: physically stable upon exposure to AAC

**Q.** And the “Solid forms Ambient AAC” value ([4]; oxalate salt thermocycling, ambient-dried solids after AAC (40° C./75% RH, 2 days), HT-XRPD)?
**A.** Oxa2

**Q.** And the “Solid forms ML AAC” value ([4]; oxalate salt thermocycling, solids from evaporated mother liquor after AAC (40° C./75% RH, 2 days), HT-XRPD)?
**A.** Oxa2

**Q.** And the “Solid forms Vacuum AAC” value ([4]; oxalate salt thermocycling, vacuum-dried solids after AAC (40° C./75% RH, 2 days), HT-XRPD)?
**A.** Oxa2
